Values joined by “and” are separate entries in the source; they are usually repeats but may differ in a detail not shown here. Equal entries are not always repeated. Structures can show the parent of a compound that is named as a salt.
Legend:
[1] = cited from earlier work
CNT1 = settings: read-out: Km (affinity for CNT1); cited from earlier work
KPC cells = assay: Tumor burden by bioluminescent imaging after orthotopic implantation of KPC-LUC cells; settings: orthotopic KPC-LUC tumors, Gemcitabine group, Fig. 6C source data
[2] = Gemcitabine plasma pharmacokinetics in Slc28a1+/+ and Slc28a1-/- mice; settings: Gemcitabine in plasma, KO mice, iv gemcitabine 50mg/kg, per mouse

## Nc1ccn([C@@H]2O[C@H](CO)[C@@H](O)C2(F)F)c(=O)n1 [dFdC, Gemcitabine hydrochloride, reference compound]
[1]
  Log P: −1.5
CNT1
  Km: 12 to 36 µM
KPC cells; day 7, Slc28a1-/- mice
  Tumor burden (bioluminescent imaging signal), individual mice: -32133333333 and 23906666667 and -21903333333 and -24593333333 and -34283333333 and 89006666667
KPC cells; day 7, wild-type mice
  Tumor burden (bioluminescent imaging signal), individual mice: 59739000000 and -37121000000 and -92035000000 and 9139000000 and 52739000000 and 7539000000
KPC cells; day 14, Slc28a1-/- mice
  Tumor burden (bioluminescent imaging signal), individual mice: 144007000000 and 59806666667 and 55206666667 and 122107000000 and 12746666667 and 52806666667
KPC cells; day 14, wild-type mice
  Tumor burden (bioluminescent imaging signal), individual mice: 127000000000 and 202000000000 and 71900000000 and 123000000000 and 33800000000 and -44800000000
KPC cells; day 21, Slc28a1-/- mice
  Tumor burden (bioluminescent imaging signal), individual mice: 903000000000 and 356000000000 and 622000000000 and 1010000000000 and 2710000000000 and 506000000000
KPC cells; day 21, wild-type mice
  Tumor burden (bioluminescent imaging signal), individual mice: 998000000000 and 735000000000 and 252000000000 and 420000000000 and 526000000000 and 763000000000
KPC cells; day 25, Slc28a1-/- mice
  Tumor burden (bioluminescent imaging signal), individual mice: 1770000000000 and 1210000000000 and 722000000000 and 1860000000000 and 1930000000000 and 2060000000000
KPC cells; day 25, wild-type mice
  Tumor burden (bioluminescent imaging signal), individual mice: 1230000000000 and 109000000000 and 355000000000 and 803000000000 and 1440000000000 and 1090000000000
[2]
  AUCINF_D_obs: 916.304 kg·ng·min/mL/mg and 1339.88 kg·ng·min/mL/mg and 778.001 kg·ng·min/mL/mg and 1050.65 kg·ng·min/mL/mg and 1326.68 kg·ng·min/mL/mg and 1607.46 kg·ng·min/mL/mg
  AUCINF_D_pred: 916.913 kg·ng·min/mL/mg and 1340.31 kg·ng·min/mL/mg and 775.108 kg·ng·min/mL/mg and 1031 kg·ng·min/mL/mg and 1323.42 kg·ng·min/mL/mg and 1604.92 kg·ng·min/mL/mg
  AUCINF_obs: 45815.2 ng·min/mL and 66994.2 ng·min/mL and 38900.1 ng·min/mL and 52532.6 ng·min/mL and 66334.2 ng·min/mL and 80373 ng·min/mL
  AUCINF_pred: 45845.6 ng·min/mL and 67015.6 ng·min/mL and 38755.4 ng·min/mL and 51550 ng·min/mL and 66171.1 ng·min/mL and 80246 ng·min/mL
  AUC_%Back_Ext_obs: 23.4974% and 21.9481% and 43.9469% and 42.6077% and 48.9911% and 43.8068%
  AUC_%Back_Ext_pred: 23.4818% and 21.941% and 44.1109% and 43.4198% and 49.1119% and 43.8762%
  AUC_%Extrap_obs: 23.7% and 27.5311% and 0.9315% and 2.802% and 0.4504% and 6.001%
  AUC_%Extrap_pred: 23.7507% and 27.5543% and 0.5618% and 0.9493% and 0.2051% and 5.852%
  AUCall: 36446.4 ng·min/mL and 50206 ng·min/mL and 39423.8 ng·min/mL and 51060.7 ng·min/mL and 66882.1 ng·min/mL and 76930.3 ng·min/mL
  AUClast: 34957 ng·min/mL and 48549.9 ng·min/mL and 38537.7 ng·min/mL and 51060.7 ng·min/mL and 66035.4 ng·min/mL and 75549.7 ng·min/mL
  AUClast_D: 699.14 kg·ng·min/mL/mg and 970.999 kg·ng·min/mL/mg and 770.754 kg·ng·min/mL/mg and 1021.21 kg·ng·min/mL/mg and 1320.71 kg·ng·min/mL/mg and 1510.99 kg·ng·min/mL/mg
  AUMCINF_obs: 6487547 min*min*ng/mL and 15108021 min*min*ng/mL and 317047 min*min*ng/mL and 1417805 min*min*ng/mL and 460548 min*min*ng/mL and 2237155 min*min*ng/mL
  AUMCINF_pred: 6504522 min*min*ng/mL and 15124898 min*min*ng/mL and 306594 min*min*ng/mL and 1123964 min*min*ng/mL and 449037 min*min*ng/mL and 2195280 min*min*ng/mL
  AUMC_%Extrap_obs: 93.2939% and 96.2322% and 8.26% and 31.0459% and 4.579% and 71.0667%
  AUMC_%Extrap_pred: 93.3114% and 96.2364% and 5.1318% and 13.0191% and 2.133% and 70.5148%
  AUMClast: 435061 min*min*ng/mL and 569242 min*min*ng/mL and 290860 min*min*ng/mL and 977634 min*min*ng/mL and 439460 min*min*ng/mL and 647283 min*min*ng/mL
  C0: 2226.24 ng/mL and 3096.19 ng/mL and 4174.86 ng/mL and 5972.33 ng/mL and 9031.34 ng/mL and 9852.43 ng/mL
  Cl_obs: 1091.34 mL/min/kg and 746.334 mL/min/kg and 1285.35 mL/min/kg and 951.789 mL/min/kg and 753.759 mL/min/kg and 622.099 mL/min/kg
  Cl_pred: 1090.62 mL/min/kg and 746.095 mL/min/kg and 1290.14 mL/min/kg and 969.932 mL/min/kg and 755.617 mL/min/kg and 623.084 mL/min/kg
  Clast: 24.8237 ng/mL and 27.6006 ng/mL and 29.5353 ng/mL and 24.934 ng/mL and 28.2215 ng/mL and 23.0093 ng/mL
  Clast_pred: 24.8933 ng/mL and 27.6326 ng/mL and 17.7456 ng/mL and 8.289 ng/mL and 12.8177 ng/mL and 22.4033 ng/mL
  Cmax_D: 41.5984 kg·ng/mL/mg and 55.7076 kg·ng/mL/mg and 53.2658 kg·ng/mL/mg and 59.6169 kg·ng/mL/mg and 79.356 kg·ng/mL/mg and 84.6224 kg·ng/mL/mg
  HL_Lambda_z: 303.191 min and 463.2 min and 8.504 min and 40.9198 min and 7.338 min and 145.3 min
  Lambda_z: 0.002286 min⁻¹ and 0.001496 min⁻¹ and 0.08151 min⁻¹ and 0.01694 min⁻¹ and 0.09446 min⁻¹ and 0.00477 min⁻¹

Source: publication PMC10235067, “Increased renal elimination of endogenous and synthetic pyrimidine nucleosides in concentrative nucleoside transporter 1 deficient mice” (Nature Communications, 2023)
